Results reported in patent US20160297763A1, “Heteroaryl hydroxamic acid derivatives and their use in the treatment, amelioration or prevention of a viral disease” (priority 2011, published 2016).
Like-named read-outs stand apart in the source and are kept apart here.

Tests used:
[1] = molecular target: PB2 cap binding domain (CBD) (Influenza A virus, UniProt Q9Q0V1); test: biochemical; parameters: species or system avian H5N1 influenza virus
[2] = system: influenza A virus A/Aichi/2/68 (H3N2); test: Cytopathic effect (CPE) assay H3N2; type: cell-based, influenza A virus (H3N2) on MDCK cells; conditions: Influenza A virus; for IC50: H3N2, read-out: CPE H3N2 IC50; for inhibition at 20 µM: H3N2, activity conc 20 (μM per method); for inhibition at 5 µM: H3N2, activity conc 5 (μM per method)
Experimental: A possible measure of the […] antiviral activity of the compounds having the formula I or II is the CPE assay disclosed herein. […] In this connection, the reduction in the virus-mediated cytopathic effect (CPE) upon treatment with the compounds was calculated as follows: The cell viability of infected-treated and uninfected-treated cells was determined using an ATP-based cell viability assay (Promega). The response in relative luminescent units (RLU) of infected-untreated samples was subtracted from the response (RLU) of the infected-treated samples and then normalized to the viability of the corresponding uninfected sample resulting in % CPE reduction.
The influenza A virus (IAV) was obtained from American Tissue Culture Collection (A/Aichi/2/68 (H3N2); VR-547). Virus stocks were prepared by propagation of virus on Mardin-Darby canine kidney (MDCK; ATCC CCL-34) cells and infectious titres of virus stocks were determined by the 50% tissue culture infective dose (TCID50) analysis as described in Reed, L. J., and H. Muench. 1938, Am. J. Hyg. 27:493-497.
MDCK cells were seeded in 96-well plates at 2×10^4 cells/well using DMEM/Ham's F-12 (1:1) medium containing 10% foetal bovine serum (FBS), 2 mM L-glutamine and 1 antibiotics (all from PAA). Until infection the cells were incubated for 5 hrs at 37° C., 5.0 CO2 to form a ˜80% confluent monolayer on the bottom of the well. Each test compound was dissolved in DMSO and generally tested at 25 μM and 250 μM. In those cases where the compounds were not soluble at that concentration they were tested at the highest soluble concentration. The compounds were diluted in infection medium (DMEM/Ham's F-12 (1:1) containing 5 μg/ml trypsin, and 1% antibiotics) for a final plate well DMSO concentration of 1%. The virus stock was diluted in infection medium (DMEM/Ham's F-12 (1:1) containing 5 μg/ml Trypsin, 1% DMSO, and 1% antibiotics) to a theoretical multiplicity of infection (MOI) of 0.05.
After removal of the culture medium and one washing step with PBS, virus and compound were added together to the cells. In the wells used for cytotoxicity determination (i.e. in the absence of viral infection), no virus suspension was added. Instead, infection medium was added. Each treatment was conducted in two replicates. After incubation at 37° C., 5% CO2 for 48 hrs, each well was observed microscopically for apparent cytotoxicity, precipitate formation, or other notable abnormalities. Then, cell viability was determined using CellTiter-Glo luminescent cell viability assay (Promega). The supernatant was removed carefully and 65 μl of the reconstituted reagent were added to each well and incubated with gentle shaking for 15 min at room temperature. Then, 60 μl of the solution was transferred to an opaque plate and luminescence (RLU) was measured using Synergy HT plate reader (Biotek).
Relative cell viability values of uninfected-treated versus uninfected-untreated cells were used to evaluate cytotoxicity of the compounds. Substances with a relative viability below 80% at the tested concentration were regarded as cytotoxic and retested at lower concentrations.
Reduction in the virus-mediated cytopathic effect (CPE) upon treatment with the compounds was calculated as follows: The response (RLU) of infected-untreated samples was subtracted from the response (RLU) of the infected-treated samples and then normalized to the viability of the corresponding uninfected sample resulting in % CPE reduction.

[3] = H3N2, read-out: CPE H3N2 reduction (%), activity conc 50 (μM per method)
[4] = H3N2, activity conc 50 (μM per method), read-out: CPE H3N2 reduction (%)
[5] = read-out: CPE H3N2 reduction (%)
[6] = H3N2, activity conc 2 (μM per method), read-out: CPE H3N2 reduction (%)

PB2 cap binding domain (CBD), sequence (Q9Q0V1 318-483 limits assumed): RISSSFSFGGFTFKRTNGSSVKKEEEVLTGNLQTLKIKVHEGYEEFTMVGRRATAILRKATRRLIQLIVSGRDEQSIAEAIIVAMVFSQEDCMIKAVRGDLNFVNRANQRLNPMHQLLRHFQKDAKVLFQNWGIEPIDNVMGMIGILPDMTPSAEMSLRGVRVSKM

Structure (SMILES)	Kd [1] [µM]	IC50 [2] [µM]	further results
Cc1c(-c2ccc(Cl)c(C(=O)N(C)C)c2)sc2nc(N)[nH]c(=O)c12 [SAV-7626]	6.4	–	inhibition at 25 µM ([2]; H3N2, activity conc 25 (μM per method), read-out: CPE H3N2 reduction (%)): -4.6%
Cc1c(-c2cc(CN(C)C)ccc2F)sc2nc(N)[nH]c(=O)c12 [SAV-7630]	57	–	inhibition at 50 µM [2, 3]: 23.2%
Cc1c(-c2ccnc(Cl)c2F)sc2nc(N)[nH]c(=O)c12 [SAV-7633]	1.2	39	inhibition at 50 µM [2, 4]: 63.1%
Cc1c(-c2ccccc2)sc2nc(NCCO)[nH]c(=O)c12 [SAV-7577]	6.8	–	inhibition at 20 µM [2, 5]: 2.85%
Cc1c(-c2ccc(F)c(C#N)c2F)sc2nc(N)[nH]c(=O)c12 [SAV-7628]	7.3	43	inhibition at 50 µM [2, 4]: 84.3%
Cc1ccccc1-c1sc2nc(N)[nH]c(=O)c2c1C [SAV-7596]	11	–	inhibition at 5 µM [2, 5]: 13.6%
Cc1c(C2=CCNCC2)sc2nc(N)[nH]c(=O)c12 [SAV-7614]	190	–	inhibition at 50 µM [2, 4]: 10.6%
Cc1c(-c2ccc(Cl)c(F)c2)sc2nc(N)[nH]c(=O)c12 [SAV-7624]	0.2	64	–
Cc1c(-c2cccc(CN(C)C)c2)sc2nc(N)[nH]c(=O)c12 [SAV-7629]	61	35	inhibition at 50 µM [2, 4]: 38.3%
Cc1c(-c2cc(C#N)ccc2Cl)sc2nc(N)[nH]c(=O)c12 [SAV-7617]	2	–	inhibition at 2 µM [2, 6]: 5.1%
COc1ccc(-c2sc3nc(N)[nH]c(=O)c3c2C)cc1 [SAV-7575]	4	–	inhibition at 20 µM [2, 5]: 9.02%
Cc1c(-c2ccnc(C(F)(F)F)c2)sc2nc(N)[nH]c(=O)c12 [SAV-7625]	12	–	inhibition at 2.5 µM ([2]; H3N2, activity conc 2.5 (μM per method), read-out: CPE H3N2 reduction (%)): -4%
Cc1c(-c2ccc(F)nc2F)sc2nc(N)[nH]c(=O)c12 [SAV-7621]	70	–	inhibition at 25 µM ([2]; H3N2, read-out: CPE H3N2 reduction (%), activity conc 25 (μM per method)): 14.3%
Cc1c(-c2cccc(C#N)c2F)sc2nc(N)[nH]c(=O)c12 [SAV-7627]	4.2	10	inhibition at 50 µM [2, 4]: 71.2%
Cc1c(-c2ccc(Cl)nc2)sc2nc(N)[nH]c(=O)c12 [SAV-7632]	0.75	–	inhibition at 50 µM [2, 3]: 53%
Cc1c(-c2ccncc2)sc2nc(N)[nH]c(=O)c12 [SAV-7586]	12	5.3	inhibition at 15 µM ([2]; H3N2, activity conc 15 (μM per method), read-out: CPE H3N2 reduction (%)): 81.2%
Cc1c(-c2cc(C(F)(F)F)cc(C(F)(F)F)c2)sc2nc(N)[nH]c(=O)c12 [SAV-7600]	3.8	–	inhibition at 2 µM ([2]; H3N2, read-out: CPE H3N2 reduction (%), activity conc 2 (μM per method)): 5.8%
Cc1c(-c2ccc(Cl)c(O)c2)sc2nc(N)[nH]c(=O)c12 [SAV-7622]	2.4	–	inhibition at 2 µM [2, 6]: 6.2%
Cc1c(-c2ccc(F)c(C#N)c2)sc2nc(N)[nH]c(=O)c12 [SAV-7611]	1.1	–	inhibition at 2 µM [2, 6]: -1%
Cc1c(-c2cnn(C)c2)sc2nc(N)[nH]c(=O)c12 [SAV-7603]	42	–	–
Cc1c(-c2ccc(F)c(C(F)(F)F)c2)sc2nc(N)[nH]c(=O)c12 [SAV-7613]	1.5	–	inhibition at 50 µM [2, 4]: 2.5%
Cc1c(-c2cccc(C#N)c2)sc2nc(N)[nH]c(=O)c12 [SAV-7594]	2	14	inhibition at 5 µM [2, 5]: 14.5%
Nc1nc2sc(Cc3ccccc3)cc2c(=O)[nH]1 [SAV-7517]	13	–	inhibition at 10 µM ([2]; H3N2, activity conc 10 (μM per method), read-out: CPE H3N2 reduction (%)): -2.64%
Cc1c(-c2cc(C#N)ccc2F)sc2nc(N)[nH]c(=O)c12 [SAV-7615]	3	12	inhibition at 20 µM [2, 5]: 59.2%
CC1=C(c2cccc(F)c2)SC2N=C(N)NC(=O)C12 (centres unmarked) [SAV-7606]	8	–	inhibition at 5 µM [2, 5]: 21.8%
